Values of other authors, collected in patent US20240066021A1, “METHODS FOR OPTIMIZING CFTR-MODULATOR THERAPY” (Children's Hospital Medical Center, priority 2021, published 2024).
Read-outs that look alike come from different tables or passages of the source.

Experiments:
TXNRD1 = molecular target: T1, TXNRD1 (Homo sapiens, UniProt Q16881)
T1 sequence (Q16881 151-649 limits assumed): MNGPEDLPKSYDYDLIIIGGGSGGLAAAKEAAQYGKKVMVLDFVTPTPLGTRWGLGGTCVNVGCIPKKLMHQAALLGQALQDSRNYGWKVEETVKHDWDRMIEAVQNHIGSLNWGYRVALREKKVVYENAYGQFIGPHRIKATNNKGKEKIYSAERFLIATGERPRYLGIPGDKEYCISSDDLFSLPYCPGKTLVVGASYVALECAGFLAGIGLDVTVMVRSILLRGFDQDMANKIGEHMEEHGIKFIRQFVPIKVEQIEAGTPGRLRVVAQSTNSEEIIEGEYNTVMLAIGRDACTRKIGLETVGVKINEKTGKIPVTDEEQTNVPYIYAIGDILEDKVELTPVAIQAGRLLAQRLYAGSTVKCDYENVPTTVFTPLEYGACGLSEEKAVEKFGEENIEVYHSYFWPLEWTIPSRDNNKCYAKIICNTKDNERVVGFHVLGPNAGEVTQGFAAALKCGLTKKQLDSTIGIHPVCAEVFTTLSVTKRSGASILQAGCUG

mTOR = mTOR (Homo sapiens, UniProt P42345); conditions: Target mTOR, Gene Symbol MTOR
[1] = molecular target: PI3K catclass IB(p110-gamma) (Homo sapiens, UniProt P48736)
SCN2A = SCN2A (Homo sapiens, UniProt Q99250)
NR2A = NR2A (Homo sapiens, UniProt Q12879)
NR2A/NR3A = NR2A/NR3A (Homo sapiens, UniProt Q12879)
HTR1B = HTR1B (Homo sapiens, UniProt P28222); conditions: Target HTR1B, Gene Symbol HTR1B
IKK-beta = molecular target: T2, IKK-beta (Homo sapiens, UniProt O14920); conditions: Target IKK-beta, Gene Symbol IKBKB
T2 sequence (O14920 1-756): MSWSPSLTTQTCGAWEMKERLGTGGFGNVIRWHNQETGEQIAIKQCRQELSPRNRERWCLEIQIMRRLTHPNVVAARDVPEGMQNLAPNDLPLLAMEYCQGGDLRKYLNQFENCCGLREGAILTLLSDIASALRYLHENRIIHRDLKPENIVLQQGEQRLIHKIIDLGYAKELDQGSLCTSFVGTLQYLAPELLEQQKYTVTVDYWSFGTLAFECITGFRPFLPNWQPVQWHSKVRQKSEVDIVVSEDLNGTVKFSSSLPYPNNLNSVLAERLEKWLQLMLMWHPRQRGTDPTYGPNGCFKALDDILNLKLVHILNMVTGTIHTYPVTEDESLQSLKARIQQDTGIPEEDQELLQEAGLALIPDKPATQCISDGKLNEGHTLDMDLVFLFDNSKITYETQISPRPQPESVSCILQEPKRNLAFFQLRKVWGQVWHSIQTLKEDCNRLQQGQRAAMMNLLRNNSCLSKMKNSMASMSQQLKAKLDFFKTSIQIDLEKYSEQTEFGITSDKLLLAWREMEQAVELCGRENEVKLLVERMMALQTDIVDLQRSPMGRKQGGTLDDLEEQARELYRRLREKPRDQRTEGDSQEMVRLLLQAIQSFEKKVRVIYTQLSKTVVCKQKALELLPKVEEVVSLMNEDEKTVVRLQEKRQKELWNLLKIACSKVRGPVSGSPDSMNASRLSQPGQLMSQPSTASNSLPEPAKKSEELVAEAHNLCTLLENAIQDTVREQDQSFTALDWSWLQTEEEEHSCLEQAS

Guanylatecyclase A(NPR1) = molecular target: T3, Guanylatecyclase A(NPR1) (Homo sapiens, UniProt P16066); conditions: Target Guanylatecyclase A(NPR1), Gene Symbol NPR1
T3 sequence (P16066 33-1061): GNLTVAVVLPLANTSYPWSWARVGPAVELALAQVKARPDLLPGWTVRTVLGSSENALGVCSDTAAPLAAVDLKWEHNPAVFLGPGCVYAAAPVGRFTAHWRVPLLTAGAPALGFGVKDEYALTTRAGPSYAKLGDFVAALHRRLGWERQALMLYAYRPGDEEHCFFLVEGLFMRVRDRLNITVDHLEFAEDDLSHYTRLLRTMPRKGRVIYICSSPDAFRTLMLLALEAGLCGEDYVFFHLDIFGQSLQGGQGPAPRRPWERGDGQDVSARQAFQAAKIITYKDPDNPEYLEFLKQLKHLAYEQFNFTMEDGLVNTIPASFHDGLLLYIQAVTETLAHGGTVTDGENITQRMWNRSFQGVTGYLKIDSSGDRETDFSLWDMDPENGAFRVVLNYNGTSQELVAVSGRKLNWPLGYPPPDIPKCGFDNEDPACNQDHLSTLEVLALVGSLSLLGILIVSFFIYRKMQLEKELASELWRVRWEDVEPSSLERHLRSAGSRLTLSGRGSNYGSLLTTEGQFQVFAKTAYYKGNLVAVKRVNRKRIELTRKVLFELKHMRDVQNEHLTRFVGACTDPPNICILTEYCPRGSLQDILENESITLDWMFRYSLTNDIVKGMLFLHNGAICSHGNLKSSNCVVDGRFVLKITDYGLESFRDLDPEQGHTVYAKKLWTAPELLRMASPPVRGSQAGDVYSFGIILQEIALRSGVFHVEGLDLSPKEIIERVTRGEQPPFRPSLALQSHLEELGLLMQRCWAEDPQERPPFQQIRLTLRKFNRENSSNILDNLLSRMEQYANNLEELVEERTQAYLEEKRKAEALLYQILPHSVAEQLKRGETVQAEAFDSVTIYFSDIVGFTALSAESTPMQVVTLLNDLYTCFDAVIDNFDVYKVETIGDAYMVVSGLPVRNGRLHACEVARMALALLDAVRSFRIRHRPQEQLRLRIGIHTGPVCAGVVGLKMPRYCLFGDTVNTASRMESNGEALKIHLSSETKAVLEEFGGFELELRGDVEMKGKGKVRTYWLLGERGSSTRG

[2] = test system: patients with at least one G551D mutation
[3] = test system: patients treated with ivacaftor versus patients untreated with CFTR modulators
[4] = Target NR2A, Gene Symbol GRIN2A
[5] = six months after drug initiation

HTR1B, sequence (P28222 whole entry): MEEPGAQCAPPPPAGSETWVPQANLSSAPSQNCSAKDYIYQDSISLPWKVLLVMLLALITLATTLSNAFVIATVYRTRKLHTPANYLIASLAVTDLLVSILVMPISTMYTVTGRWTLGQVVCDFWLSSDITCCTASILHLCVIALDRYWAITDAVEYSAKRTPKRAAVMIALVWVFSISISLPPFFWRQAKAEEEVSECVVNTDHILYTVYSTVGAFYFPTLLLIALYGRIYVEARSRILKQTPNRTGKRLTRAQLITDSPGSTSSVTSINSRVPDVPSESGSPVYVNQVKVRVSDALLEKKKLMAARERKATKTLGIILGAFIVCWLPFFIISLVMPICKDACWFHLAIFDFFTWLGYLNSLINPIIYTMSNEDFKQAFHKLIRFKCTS
NR2A, sequence (Q12879 23-1464, other chains not shown): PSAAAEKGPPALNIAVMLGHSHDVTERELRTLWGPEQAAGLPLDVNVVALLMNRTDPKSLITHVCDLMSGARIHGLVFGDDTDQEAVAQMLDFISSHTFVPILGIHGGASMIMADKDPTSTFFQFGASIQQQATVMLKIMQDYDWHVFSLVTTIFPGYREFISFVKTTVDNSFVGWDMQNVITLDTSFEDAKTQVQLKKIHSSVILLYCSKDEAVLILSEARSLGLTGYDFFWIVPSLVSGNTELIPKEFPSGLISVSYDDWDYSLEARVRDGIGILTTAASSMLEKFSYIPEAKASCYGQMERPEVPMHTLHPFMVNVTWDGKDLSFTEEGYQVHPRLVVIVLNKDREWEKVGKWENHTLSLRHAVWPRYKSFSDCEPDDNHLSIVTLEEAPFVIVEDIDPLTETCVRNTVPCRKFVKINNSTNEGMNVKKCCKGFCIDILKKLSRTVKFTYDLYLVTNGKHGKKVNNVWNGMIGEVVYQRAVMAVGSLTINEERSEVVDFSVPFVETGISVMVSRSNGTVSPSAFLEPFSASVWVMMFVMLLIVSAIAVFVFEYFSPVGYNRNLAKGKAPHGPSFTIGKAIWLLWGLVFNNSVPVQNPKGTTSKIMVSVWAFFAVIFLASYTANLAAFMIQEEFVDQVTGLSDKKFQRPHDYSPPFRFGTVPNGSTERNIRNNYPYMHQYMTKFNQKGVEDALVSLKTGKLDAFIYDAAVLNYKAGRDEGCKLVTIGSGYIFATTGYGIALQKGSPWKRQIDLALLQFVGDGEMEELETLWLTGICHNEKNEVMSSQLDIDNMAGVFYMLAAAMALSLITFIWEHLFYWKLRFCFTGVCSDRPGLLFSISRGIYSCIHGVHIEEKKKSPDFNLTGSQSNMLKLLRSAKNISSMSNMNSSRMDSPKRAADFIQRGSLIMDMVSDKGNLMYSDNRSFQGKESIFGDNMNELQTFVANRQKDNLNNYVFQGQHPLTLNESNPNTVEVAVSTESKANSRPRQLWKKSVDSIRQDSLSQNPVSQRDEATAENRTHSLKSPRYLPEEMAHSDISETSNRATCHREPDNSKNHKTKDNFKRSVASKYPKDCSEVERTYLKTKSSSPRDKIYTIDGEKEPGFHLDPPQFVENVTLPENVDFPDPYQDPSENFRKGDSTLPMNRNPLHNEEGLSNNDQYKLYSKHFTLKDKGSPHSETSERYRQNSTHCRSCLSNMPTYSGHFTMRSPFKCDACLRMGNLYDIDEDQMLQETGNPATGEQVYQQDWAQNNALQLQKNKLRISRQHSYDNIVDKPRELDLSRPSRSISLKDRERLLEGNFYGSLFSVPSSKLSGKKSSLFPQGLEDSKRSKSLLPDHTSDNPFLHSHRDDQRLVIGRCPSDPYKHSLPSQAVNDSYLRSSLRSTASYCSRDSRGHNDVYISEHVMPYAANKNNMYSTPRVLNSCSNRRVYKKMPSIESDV
SCN2A, sequence (Q99250 whole entry): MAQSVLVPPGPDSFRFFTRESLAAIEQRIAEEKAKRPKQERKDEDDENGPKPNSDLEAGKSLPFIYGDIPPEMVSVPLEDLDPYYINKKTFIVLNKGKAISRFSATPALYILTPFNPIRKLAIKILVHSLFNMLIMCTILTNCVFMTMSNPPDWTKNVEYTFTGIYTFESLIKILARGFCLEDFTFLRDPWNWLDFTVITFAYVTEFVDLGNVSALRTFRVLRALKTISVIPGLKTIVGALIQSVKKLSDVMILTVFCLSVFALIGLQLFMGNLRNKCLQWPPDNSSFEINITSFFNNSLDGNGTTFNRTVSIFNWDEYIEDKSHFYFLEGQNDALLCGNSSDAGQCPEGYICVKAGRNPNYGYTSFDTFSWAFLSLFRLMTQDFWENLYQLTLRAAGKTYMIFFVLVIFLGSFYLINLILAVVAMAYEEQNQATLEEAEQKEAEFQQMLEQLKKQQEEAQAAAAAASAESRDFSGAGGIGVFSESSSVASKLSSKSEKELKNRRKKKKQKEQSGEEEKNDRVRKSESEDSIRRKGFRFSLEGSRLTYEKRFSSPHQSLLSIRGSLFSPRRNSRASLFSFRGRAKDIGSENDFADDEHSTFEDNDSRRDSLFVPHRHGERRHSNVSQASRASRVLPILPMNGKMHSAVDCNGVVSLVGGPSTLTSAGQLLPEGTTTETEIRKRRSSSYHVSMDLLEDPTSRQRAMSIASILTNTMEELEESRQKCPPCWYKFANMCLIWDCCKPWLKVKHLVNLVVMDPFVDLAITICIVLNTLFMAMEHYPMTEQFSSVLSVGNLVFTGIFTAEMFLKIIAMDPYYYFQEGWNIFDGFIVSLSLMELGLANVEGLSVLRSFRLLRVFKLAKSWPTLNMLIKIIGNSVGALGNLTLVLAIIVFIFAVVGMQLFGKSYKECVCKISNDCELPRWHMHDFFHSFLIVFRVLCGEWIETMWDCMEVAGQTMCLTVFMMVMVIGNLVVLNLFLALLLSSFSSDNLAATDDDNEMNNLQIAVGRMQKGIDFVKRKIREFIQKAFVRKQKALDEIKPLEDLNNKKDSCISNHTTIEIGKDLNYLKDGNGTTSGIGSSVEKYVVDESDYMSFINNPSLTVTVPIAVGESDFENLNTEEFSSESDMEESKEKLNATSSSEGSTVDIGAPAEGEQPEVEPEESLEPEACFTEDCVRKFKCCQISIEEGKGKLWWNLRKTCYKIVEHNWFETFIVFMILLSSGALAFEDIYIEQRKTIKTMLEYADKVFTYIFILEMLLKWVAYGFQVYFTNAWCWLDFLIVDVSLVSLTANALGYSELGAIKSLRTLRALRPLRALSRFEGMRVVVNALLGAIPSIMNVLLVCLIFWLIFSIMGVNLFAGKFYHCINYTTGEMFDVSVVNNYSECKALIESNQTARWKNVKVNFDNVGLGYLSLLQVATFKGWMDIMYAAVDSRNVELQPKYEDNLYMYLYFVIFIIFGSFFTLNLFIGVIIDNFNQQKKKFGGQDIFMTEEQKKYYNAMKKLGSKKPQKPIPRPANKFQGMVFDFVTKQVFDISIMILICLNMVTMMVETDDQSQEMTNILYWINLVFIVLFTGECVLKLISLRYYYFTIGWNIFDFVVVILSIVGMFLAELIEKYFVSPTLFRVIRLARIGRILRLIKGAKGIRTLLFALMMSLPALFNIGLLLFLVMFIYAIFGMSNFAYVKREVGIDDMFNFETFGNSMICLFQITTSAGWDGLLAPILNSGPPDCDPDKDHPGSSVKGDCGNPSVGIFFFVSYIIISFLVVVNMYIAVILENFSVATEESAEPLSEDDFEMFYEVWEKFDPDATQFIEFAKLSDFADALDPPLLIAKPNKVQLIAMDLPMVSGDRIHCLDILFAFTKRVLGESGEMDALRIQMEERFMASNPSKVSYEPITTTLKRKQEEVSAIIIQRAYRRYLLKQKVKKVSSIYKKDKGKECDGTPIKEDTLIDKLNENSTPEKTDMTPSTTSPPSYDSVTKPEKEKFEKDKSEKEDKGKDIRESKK
PI3K catclass IB(p110-gamma), sequence (P48736 whole entry): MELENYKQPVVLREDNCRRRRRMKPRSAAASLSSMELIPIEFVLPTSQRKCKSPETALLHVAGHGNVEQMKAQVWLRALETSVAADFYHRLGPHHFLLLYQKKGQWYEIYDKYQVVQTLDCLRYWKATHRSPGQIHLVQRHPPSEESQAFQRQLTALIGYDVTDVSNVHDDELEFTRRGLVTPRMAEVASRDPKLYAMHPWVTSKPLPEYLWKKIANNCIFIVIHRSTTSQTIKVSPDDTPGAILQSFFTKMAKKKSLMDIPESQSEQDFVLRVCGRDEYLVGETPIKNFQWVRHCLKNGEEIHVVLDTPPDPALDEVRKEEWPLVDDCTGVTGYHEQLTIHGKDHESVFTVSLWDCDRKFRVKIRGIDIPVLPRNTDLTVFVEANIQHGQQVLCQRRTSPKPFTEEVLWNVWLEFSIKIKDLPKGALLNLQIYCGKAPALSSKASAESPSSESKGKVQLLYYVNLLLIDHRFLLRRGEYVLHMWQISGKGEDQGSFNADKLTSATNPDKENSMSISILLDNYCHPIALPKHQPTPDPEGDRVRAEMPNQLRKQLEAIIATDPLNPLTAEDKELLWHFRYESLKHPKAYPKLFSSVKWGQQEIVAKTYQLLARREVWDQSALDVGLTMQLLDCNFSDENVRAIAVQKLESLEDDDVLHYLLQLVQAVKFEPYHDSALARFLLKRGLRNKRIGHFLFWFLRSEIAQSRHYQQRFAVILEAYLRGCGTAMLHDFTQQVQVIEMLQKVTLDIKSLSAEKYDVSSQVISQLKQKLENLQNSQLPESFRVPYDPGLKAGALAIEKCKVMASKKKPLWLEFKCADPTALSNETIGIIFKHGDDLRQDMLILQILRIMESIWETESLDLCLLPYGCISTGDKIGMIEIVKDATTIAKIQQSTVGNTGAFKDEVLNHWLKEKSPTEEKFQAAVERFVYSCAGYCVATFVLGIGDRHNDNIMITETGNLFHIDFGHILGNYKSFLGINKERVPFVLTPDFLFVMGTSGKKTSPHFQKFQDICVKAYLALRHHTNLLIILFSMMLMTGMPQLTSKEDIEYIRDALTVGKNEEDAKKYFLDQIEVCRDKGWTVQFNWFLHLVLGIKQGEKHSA

Cn1c(COP(=O)(NCCBr)NCCBr)cnc1[N+](=O)[O-] [Evofosfamide]
Effect (TXNRD1): Inhibition

CO[C@H]1C[C@@H]2CC[C@@H](C)[C@@](O)(O2)C(=O)C(=O)N2CCCC[C@H]2C(=O)O[C@H]([C@H](C)C[C@@H]2CC[C@@H](OC(=O)C(C)(CO)CO)[C@H](OC)C2)CC(=O)[C@H](C)/C=C(\C)[C@@H](O)[C@@H](OC)C(=O)[C@H](C)C[C@H](C)/C=C/C=C/C=C/1C [Temsirolimus intracellular, Temsirolimus]
Effect (mTOR): Inhibition

C=CCN(/C=C1/C(=O)O[C@H](COC)[C@@]2(C)C1=C(O)C(=O)C1=C2[C@H](OC(C)=O)C[C@]2(C)C(=O)CC[C@@H]12)CC=C [Sonolisib]
Effect [1]: Inhibition

CO[C@H]1C[C@@H]2CC[C@@H](C)[C@@](O)(O2)C(=O)C(=O)N2CCCC[C@H]2C(=O)O[C@H]([C@H](C)C[C@@H]2CC[C@@H](OP(C)(C)=O)[C@H](OC)C2)CC(=O)[C@H](C)/C=C(\C)[C@@H](O)[C@@H](OC)C(=O)[C@H](C)C[C@H](C)/C=C/C=C/C=C/1C [Ridaforolimus]
Effect (mTOR): Inhibition

NC1=N[C@H](O)[C@H]2[C@H]3O[C@]4(O)O[C@@H]([C@@H](O)[C@@]2(N1)[C@@H]4O)[C@]3(O)CO [Tetrodotoxin]
Effect (SCN2A): Inhibition

CNC1(c2ccccc2Cl)CCCCC1=O (stereo not shown) [Ketamine]
Effect (NR2A): Inhibition | Effect (NR2A/NR3A): Inhibition

CN(C)CCc1c[nH]c2ccc(Cn3cncn3)cc12 [Rizatriptan]
Effect (HTR1B): Activation

NC(=O)CNC1Cc2ccccc2C1 [Indantadol]
Effect (NR2A; [4]): Inhibition

C[C@@H]1CN(C(=O)CN2CC(C)(C)OC[C@H]2C(=O)Nc2cc(Cl)cc3c2[nH]c2cnccc23)C[C@H](C)O1 [MLN0415]
Effect (IKK-beta): Inhibition

CO[C@H]1C[C@@H]2CC[C@@H](C)[C@@](O)(O2)C(=O)C(=O)N2CCCC[C@H]2C(=O)O[C@H]([C@H](C)C[C@@H]2CC[C@@H](OCCO)[C@H](OC)C2)CC(=O)[C@H](C)/C=C(\C)[C@@H](O)[C@@H](OC)C(=O)[C@H](C)C[C@H](C)/C=C/C=C/C=C/1C [Everolimus]
Effect (mTOR): Inhibition

CC(Cc1ccccc1)(NC(=O)CN)c1ccccc1 (stereo not shown) [Remacemide]
Effect (NR2A; [4]): Inhibition

CN[C@@H]1CCc2[nH]c3ccc(C(N)=O)cc3c2C1 [Frovatriptan]
Effect (HTR1B): Activation

CN1CCN(c2ncc(-c3cc(Cl)cc(Cl)c3Cl)c(N)n2)CC1 [Sipatrigine]
Effect (SCN2A): Inhibition

COc1ccc(-c2ccc3c(N4CCOC[C@@H]4C)nc(N4CCOC[C@@H]4C)nc3n2)cc1CO [AZD8055]
Effect (mTOR): Inhibition

CC12CC3CC(C)(C1)CC(N)(C3)C2 [Memantine]
Effect (NR2A; [4]): Inhibition | Effect (NR2A/NR3A; Target NR2A/NR3A, Gene Symbol GRIN2A): Inhibition

CNS(=O)(=O)CCc1ccc2[nH]cc(C3CCN(C)CC3)c2c1 [Naratriptan]
Effect (HTR1B): Activation

O=[N+]([O-])O[C@H]1CO[C@H]2[C@@H]1OC[C@H]2O[N+](=O)[O-] [Isosorbide dinitrate]
Effect (Guanylatecyclase A(NPR1)): Inhibition

CC(=O)[O-].CC(=O)[O-].CCc1c(CC)c2cc3nc(cnc4cc(OCCOCCOCCOC)c(OCCOCCOCCOC)cc4ncc4nc(cc1[n-]2)C(CCCO)=C4C)C(C)=C3CCCO.O.[Gd+3] [Motexafin gadolinium]
Effect (TXNRD1; Target TXNRD1, Gene Symbol TXNRD1): Inhibition

Nesiritide
Effect (Guanylatecyclase A(NPR1)): Activation

CN(C)CCc1c[nH]c2ccc(CS(=O)(=O)N3CCCC3)cc12 [Almotriptan]
Effect (HTR1B): Activation

Nc1nc(N)c2nc(-c3cccc(O)c3)c(-c3cccc(O)c3)nc2n1 [TG100115]
Effect ([1]; Target PI3K catclass IB(p110-gamma), Gene Symbol PIK3CG): Inhibition

CC(C)(C)c1cc(C(C)(C)C)c(NC(=O)c2c[nH]c3ccccc3c2=O)cc1O [ivacaftor]
mean change in ppFEV1 [2, 5]: 6.7 (95% CI 4.9-8.5) | mean change in weight [2, 5]: 2.5 kg | mean decline in sweat chloride [2, 5]: −54 mEq | quality of life scores [2, 5]: improvement | rate of hospitalization ([2]; six months after drug initiation, p<0.001): decreased | portion of subjects with physiologic CFTR correction that did not have improvement in FEV1>5% (poor lung function response) ([2]; subjects with sweat chloride shifts by −40 to −80 mEq/L): ~50% | BMI ([3]; longer term follow up): maintain improved | hospitalizations ([3]; longer term follow up): decreasing | pulmonary exacerbations ([3]; longer term follow up): decreasing | lung function decline ([3]; versus patients untreated with CFTR modulators): slowed

COc1cc(O)c(CC=C(C)C)c(O)c1C(=O)/C=C/c1ccc(O)cc1 [Xanthohumol]
Effect (IKK-beta): Inhibition
